Measurements from patent publication US8916599B2, “1H-benz imidazole-5-carboxamides as anti-inflammatory agents” (Orexo AB, priority 2008, dated 2014).

Biological target: T1, recombinant human mPGES-1 (Homo sapiens, UniProt O14684)
T1 construct: made in house; host or cells: Rosetta E. coli (microsomal/membrane fraction)
T1 sequence (O14684 1-152): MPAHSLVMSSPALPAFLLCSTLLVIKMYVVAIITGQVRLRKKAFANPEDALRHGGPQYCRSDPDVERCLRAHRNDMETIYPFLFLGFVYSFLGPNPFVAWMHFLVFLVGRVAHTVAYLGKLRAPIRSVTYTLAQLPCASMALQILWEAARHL
Experiment: mPGES-1 inhibition test (microsomes, PGH2 substrate, HTRF detection of PGE2)
Type: biochemical
Details: inhibition of mPGES-1 at 10 μM
Protocol: Microsomes from Rosetta E. coli bacteria expressing recombinant human mPGES-1 is dissolved in 0.1 M KPi pH 7.4 buffer containing 2.5 mM GSH. 50 μl of the enzyme is subsequently dispensed in a 384-well plate. 0.5 μl of the inhibitor dissolved in DMSO at is thereafter added to each well and incubated for 25 minutes at room temperature. Subsequently, 2 μl of PGH2 dissolved in an appropriate solvent is added to each well and after one minute the acidified stop solution containing FeCl2 is added. 4 μl of the total volume is transferred to a separate plate and diluted 750-fold in two separate steps before HTRF detection of PGE2.
The HTRf detection is performed by the use of a commercially available kit from CisBio essentially according to the manufacturer's protocol. Briefly, 10 μl of the diluted sample is transferred to a white 384-well plate. 5 μl of d2 and 5 μl Eu3+-Cryptate labeled anti-PGE2 is added to each well containing samples by the use of a Multidrop. The plate is covered with a plastic self-adhesive film, centrifuged at 1200 rpm for 1 minute and subsequently stored at +4° C. over night.
After over night incubation the fluorescence is measured by the use of an appropriate microplate reader. The fluorescence of europium cryptate, and d2 are measured using the following excitation and emission wavelength, europium cryptate: λmax^ex=307 nm, λmax^em=620 nm and d2: λmax^ex=620 nm, λmax^em=665 nm), respectively. The extent of the specific FRET is measured as a ratio of the emission intensity at 665 nm vs. that at 620 nm. A standard curve using synthetic PGE2 is used to quantify the amount of PGE2 in unknown samples.

| SMILES | inhibition at 10 µM |
| --- | --- |
| O=C(Nc1nc2c(s1)CCC2)c1ccc2[nH]c(Nc3c(Cl)cccc3Cl)nc2c1 [Example 78, 2-(2,6-Dichloro-phenylamino)-1H-benzimidazole-5-carboxylic acid (5,6-dihydro-4H-cyclopentathiazol-2-yl)-amide] | 90% |
| O=C(Nc1nc2c(s1)CCCC2)c1ccc2[nH]c(Nc3c(Cl)cccc3Cl)nc2c1 [Example 79, 2-(2,6-Dichloro-phenylamino)-1H-benzimidazole-5-carboxylic acid (4,5,6,7-tetrahydro-benzothiazol-2-yl)-amide] | 100% |
| O=C(Nc1nc2ccccc2[nH]1)c1ccc2[nH]c(Nc3c(Cl)cccc3Cl)nc2c1 [Example 80, 2-(2,6-Dichloro-phenylamino)-1H-benzimidazole-5-carboxylic acid (benzimidazol-2-yl)-amide] | 92% |
| Cn1c(NC(=O)c2ccc3[nH]c(Nc4c(Cl)cccc4Cl)nc3c2)nc2ccccc21 [Example 81, 2-(2,6-Dichloro-phenylamino)-1H-benzimidazole-5-carboxylic acid (1-methyl-benzimidazol-2-yl)-amide] | 84% |
| O=C(Nc1ccc(I)cc1)c1ccc2[nH]c(Nc3c(Cl)cccc3Cl)nc2c1 [Example 84, 2-(2,6-Dichloro-phenylamino)-1H-benzimidazole-5-carboxylic acid (4-iodo-phenyl)-amide] | 100% |
| Cc1cc(NC(=O)c2ccc3[nH]c(Nc4c(Cl)cccc4Cl)nc3c2)ncc1Cl [Example 89, 2-(2,6-Dichloro-phenylamino)-1H-benzimidazol-5-carboxylic acid (5-chloro-4-methyl-pyridin-2-yl)-amide] | 97% |
| O=C(Nc1ccc(Br)cc1)c1ccc2[nH]c(Nc3c(Cl)cc(Cl)cc3Cl)nc2c1 [Example 107, 2-(2,4,6-Trichloro-phenylamino)-1H-benzimidazole-5-carboxylic acid (4-bromo-phenyl)-amide] | 99% |
| O=C(Nc1ccc(Br)cc1)c1ccc2[nH]c(Nc3cccc(Cl)c3Cl)nc2c1 [Example 108, 2-(2,3-Dichloro-phenylamino)-1H-benzimidazole-5-carboxylic acid (4-bromo-phenyl)-amide] | 100% |
| O=C(Nc1ccc(Br)cc1)c1ccc2[nH]c(Nc3ccc(Cl)cc3Cl)nc2c1 [Example 109, 2-(2,4-Dichloro-phenylamino)-1H-benzimidazole-5-carboxylic acid (4-bromo-phenyl)-amide] | 100% |
| O=C(Nc1ccc(Cl)c(Cl)c1)c1ccc2[nH]c(Nc3c(Cl)cccc3Cl)nc2c1 [Example 111, 2-(2,6-Dichloro-phenylamino)-1H-benzimidazole-5-carboxylic acid (3,4-dichloro-phenyl)-amide] | 100% |
| O=C(Nc1cc(Cl)cc(Cl)c1)c1ccc2[nH]c(Nc3c(Cl)cccc3Cl)nc2c1 [Example 112, 2-(2,6-Dichloro-phenylamino)-1H-benzimidazole-5-carboxylic acid (3,5-dichloro-phenyl)-amide] | 97% |
| CCc1cccc(CC)c1Nc1nc2cc(C(=O)Nc3ccc(Br)cc3)ccc2[nH]1 [Example 114, 2-(2,6-Diethyl-phenylamino)-1H-benzimidazole-5-carboxylic acid (4-bromo-phenyl)-amide] | 80% |
| Cc1ccnc(NC(=O)c2ccc3[nH]c(Nc4c(Cl)cccc4Cl)nc3c2)c1 [Example 116, 2-(2,6-Dichloro-phenylamino)-1H-benzimidazole-5-carboxylic acid (4-methyl-pyridin-2-yl)-amide] | 92% |
| Cc1cc(C)nc(NC(=O)c2ccc3[nH]c(Nc4c(Cl)cccc4Cl)nc3c2)c1 [Example 117, 2-(2,6-Dichloro-phenylamino)-1H-benzimidazole-5-carboxylic acid (4,6-dimethyl-pyridin-2-yl)-amide] | 100% |
| Cc1cc(C)nc(NC(=O)c2ccc3[nH]c(Nc4ccccc4C(F)(F)F)nc3c2)c1 [Example 118, 2-(2-Trifluoromethyl-phenylamino)-1H-benzimidazole-5-carboxylic acid (4,6-dimethyl-pyridin-2-yl)-amide] | 80% |
| CCc1ccnc(NC(=O)c2ccc3[nH]c(Nc4c(Cl)cccc4Cl)nc3c2)c1 [Example 120, 2-(2,6-Dichloro-phenylamino)-1H-benzimidazole-5-carboxylic acid (4-ethyl-pyridin-2-yl)-amide] | 96% |
| O=C(Nc1ccc(Br)c(F)c1)c1cc2nc(Nc3c(Cl)cccc3Cl)[nH]c2cc1F [Example 121, 2-(2,6-Dichloro-phenylamino)-6-fluoro-1H-benzimidazol-5-carboxylic acid (4-bromo-3-fluoro-phenyl)-amide] | 95% |
| Cc1cc2[nH]c(Nc3c(Cl)cccc3Cl)nc2cc1C(=O)Nc1ccc(C(C)(C)C)cc1 [Example 122, 2-(2,6-Dichloro-phenylamino)-6-methyl-1H-benzimidazol-5-carboxylic acid (4-tert.-butyl-phenyl)-amide] | 99% |
| Cc1cc2[nH]c(Nc3c(Cl)cccc3Cl)nc2cc1C(=O)NC1CCC(C)(C)CC1 [Example 123, 2-(2,6-Dichloro-phenylamino)-6-methyl-1H-benzimidazol-5-carboxylic acid (4,4-dimethyl-cyclohexyl)-amide] | 95% |

More lines, now with the values ahead:

| inhibition at 10 µM | SMILES |
| --- | --- |
| 98% | O=C(Nc1ccc(Cl)c(F)c1)c1cc2nc(Nc3c(Cl)cccc3Cl)[nH]c2cc1F [Example 124, 2-(2,6-Dichloro-phenylamino)-6-fluoro-1H-benzimidazol-5-carboxylic acid (4-chloro-3-fluoro-phenyl)-amide] |
| 100% | O=C(NC1Cc2ccccc2C1)c1cc2nc(Nc3c(Cl)cccc3Cl)[nH]c2cc1F [Example 125, 2-(2,6-Dichloro-phenylamino)-6-fluoro-1H-benzimidazol-5-carboxylic acid indan-2-yl-amide] |
| 92% | Cn1c(Nc2c(Cl)cccc2Cl)nc2cc(C(=O)NCc3cnccc3C(F)(F)F)c(F)cc21 [Example 126, 2-(2,6-Dichloro-phenylamino)-6-fluoro-1-methyl-1H-benzimidazole-5-carboxylic acid (4-trifluoromethyl-pyridin-3-ylmethyl)-amide] |
| 100% | Cc1cc(NC(=O)c2cc3nc(Nc4c(Cl)cccc4Cl)n(C)c3cc2F)ncc1Cl [Example 127, 2-(2,6-Dichloro-phenylamino)-6-fluoro-1-methyl-1H-benzimidazole-5-carboxylic acid (5-chloro-4-methyl-pyridin-2-yl)-amide] |
| 100% | Cc1cc(C)nc(NC(=O)c2cc3nc(Nc4c(Cl)cccc4Cl)n(C)c3cc2F)c1 [Example 128, 2-(2,6-Dichloro-phenylamino)-6-fluoro-1-methyl-1H-benzimidazole-5-carboxylic acid (4,6-dimethyl-pyridin-2-yl)-amide] |
| 92% | Cn1c(Nc2c(Cl)cccc2Cl)nc2cc(C(=O)Nc3cc(Cl)ccn3)c(F)cc21 [Example 129, 2-(2,6-Dichloro-phenylamino)-6-fluoro-1-methyl-1H-benzimidazole-5-carboxylic acid (4-chloro-pyridin-2-yl)-amide] |
| 93% | Cn1c(Nc2c(Cl)cccc2Cl)nc2cc(C(=O)Nc3cc(C(F)(F)F)ccn3)c(F)cc21 [Example 130, 2-(2,6-Dichloro-phenylamino)-6-fluoro-1-methyl-1H-benzimidazole-5-carboxylic acid (4-trifluoromethyl-pyridin-2-yl)-amide] |
| 96% | Cc1nc(NC(=O)c2cc3nc(Nc4c(Cl)cccc4Cl)n(C)c3cc2F)cc2c1CCCC2 [Example 131, 2-(2,6-Dichloro-phenylamino)-6-fluoro-1-methyl-1H-benzimidazole-5-carboxylic acid (1-methyl-5,6,7,8-tetrahydro-isoquinolin-3-yl)-amide] |
| 97% | Cc1nc(NC(=O)c2ccc3[nH]c(Nc4c(Cl)cccc4Cl)nc3c2)cc2c1CCCC2 [Example 132, 2-(2,6-Dichloro-phenylamino)-1H-benzimidazole-5-carboxylic acid (1-methyl-5,6,7,8-tetrahydro-isoquinolin-3-yl)-amide] |
| 100% | COc1cc2c(cc1C(=O)NC1CCCCC1)nc(Nc1c(Cl)cccc1Cl)n2C [Example 135, 2-(2,6-Dichloro-phenylamino)-6-methoxy-1-methyl-1H-benzimidazole-5-carboxylic acid cyclohexylamide] |
| 98% | COc1cc2c(cc1C(=O)NCc1ccccc1C(F)(F)F)nc(Nc1c(Cl)cccc1Cl)n2C [Example 136, 2-(2,6-Dichloro-phenylamino)-6-methoxy-1-methyl-1H-benzimidazole-5-carboxylic acid 2-trifluoromethyl-benzylamide] |
